Values of other authors as cited in patent publication US20180214412A1, “IMMEDIATE RELEASE CANNABINOID FORMULATIONS” (CannTab Therapeutics Limited, priority 2017, published 2018).

Conditions: after administration

CCCCCc1cc(O)c2c(c1)OC(C)(C)[C@@H]1CCC(C)=C[C@@H]21 [Dronabinol, (−)-trans-Δ9-tetrahydrocannabinol]
duration of appetite stimulant effect: ≥ 24 h
